Measured values: US11534457B2, “Use of dextran sulfate” (priority 2017, dated 2022)

Test system: Mouse motor neurons (Aruna)
Assay: Gene expression array and pathway analysis, motor neurons
Format: cell-based
Experimental: For each cell line, n=8×25 cm^2 culture flasks were set up. Two flasks were harvested for each cell type on the day of treatment (24 hours after seeding). This represents the Day0 time point. From the remaining flasks, three flasks were treated with Control Medium and three were treated with Culture Medium (CM) containing LMW-DS to give a final concentration of 0.01 mg/ml. Cells from the treated flasks were collected after 48 hours. Therefore the collected data represent (a) untreated cells (Day0 Controls and Day2 Controls) and (b) cells treated with LMW-DS for 48 hours (Day2 LMW-DS treated).
25 cm^2 flasks were coated by adding 2 ml per flask of a solution of 50 μg/ml poly-d-lysine in Hank's balanced salt solution (HBSS) and incubating overnight at 37° C. in the dark. Flasks were washed with cell culture water and air-dried for 30 min in the dark. Flasks were coated by adding 1 ml per flask of a solution of 25 μg/ml laminin in phosphate-buffered saline (PBS) and incubating for 2 hour at 37° C. in the dark. The laminin flasks were washed with PBS three times before plating cells.
The culture medium was prepared according to Table 5.
Medium (see Table 5) was pre-warmed to 37° C. Cells were thawed in a 37° C. water bath for no longer than 2 min. 9 ml of media was gently added drop-wise. The cell suspension was mixed by inverting the tube carefully twice. The cells were counted with a Cellometer. The cells were centrifuged for 5 minutes at 200×g. Supernatant was removed (to the last 0.5 ml) and cells were gently resuspended by trituration. The cells from the 8 vials were mixed and distributed equally into the previously coated 25 cm^2 flasks (n=8). Cells were incubated at 37° C. with 5% CO2 for 24 hours before treatment.
LMW-DS was provided at a stock concentration of 20 mg/ml and was kept in a temperature monitored refrigerator at 4° C. A fresh […]LMW-DS stock (1.0 mg/ml) was prepared in sterile DMEM-F12. The concentrated drug stock was sterile filtered and added to the respective culture media (19.6 ml CM and 0.4 ml LMW-DS stock solution). The Control was made using 19.6 ml CM and 0.4 ml of DMEM-F12. LMW-DS and CM were added to the respective flasks (5 ml each) to reach the 0.01 mg/ml concentration of LMW-DS in each dish with a total of 10 ml CM each.
CM was aspirated into a clean and labelled 15 ml Falcon tube. The flasks (without culture medium) were placed into the −80° C. freezer for 30 minutes. The CM in the Falcon tubes were spun at 3000×g for 5 minutes. Supernatant was removed and the small pellet was re-suspended in 2.5 ml Trizol:Water (4:1) solution at room temperature (RT, […]).
Two aliquots of 1 ml lysate was removed from each sample and 200 μl of chloroform was added to each (0.2 ml of chloroform per 1 ml of TRIzol Reagent used during the cell lysis step) and the tube was shaken vigorously. Samples were stored at RT for 2-3 minutes and subsequently centrifuged at 12,000×g for 15 minutes at 4° C.
The expression data were downloaded into separate files for each cell line. The ‘Background corrected’ expression is the data from the “gProcessedSignal” of the arrays that is the result of the background signal extracted from the actual signal of the relevant probe. This is the most often used variable in array analysis. The background corrected signal was log 2 transformed for all samples for statistical analysis. To reduce the false discovery rate in the samples, the signals that were below ‘expression level’ were removed. The ‘below expression’ level was set at 5 for the log 2 transformed expression values.
Based on the expression pattern of the Control probes on each array it was decided to carry out Median Centering for all arrays before analysis to reduce the variability of the results. […]

For “low molecular weight dextran sulfate [LMW-DS]”, the HtrA2 (0.01 mg/ml, 48 h) was “inhibition”, the amyloid-β production (0.01 mg/ml, 48 h) was “preventing amyloid-β production” and the “apoptosis pathway (F in FIG. 18)” value (0.01 mg/ml, 48 h) was “preventing and inhibiting apoptosis”. The “cellular attachment from expression patterns (neurons)” value (0.01 mg/ml, 48 h) was “significant inhibition of cellular attachment”, the fatty acid oxidation (0.01 mg/ml, 48 h) was “inhibiting fatty acid oxidation” and the “inhibition of glutamate production at baseline” value (0.01 mg/ml, 48 h) was “not affected”. The “level of H2O2” value (0.01 mg/ml, 48 h) was “reduced”, the “number of genes differentially expressed, D0 control to the D2 LMW-DS treated samples (second statement)” value (0.01 mg/ml, 48 h) was 425 genes and the “number of genes differentially expressed, D0 control vs D2 LMW-DS treated” value (0.01 mg/ml, 48 h) was 315 genes. For the same substance, the “number of genes: abolished nutrient effect / no effect” value (0.01 mg/ml, 48 h) was 177, the “number of genes: abolished nutrient effect / significant downregulation” value (0.01 mg/ml, 48 h) was 47 and the “number of genes: abolished nutrient effect / significant upregulation” value (0.01 mg/ml, 48 h) was 40. The “number of genes: abolished nutrient effect / total” value (0.01 mg/ml, 48 h) was 264, the “number of genes: enhanced response to nutrients / significant downregulation” value (0.01 mg/ml, 48 h) was 36 and the “number of genes: enhanced response to nutrients / significant upregulation” value (0.01 mg/ml, 48 h) was 103. For the same substance, the “number of genes: enhanced response to nutrients / total” value (0.01 mg/ml, 48 h) was 139, the “number of genes: new effect induced by LMW-DS / no effect” value (0.01 mg/ml, 48 h) was 108 and the “number of genes: new effect induced by LMW-DS / significant downregulation” value (0.01 mg/ml, 48 h) was 375. For the same substance, the “number of genes: new effect induced by LMW-DS / significant upregulation” value (0.01 mg/ml, 48 h) was 71, the “number of genes: new effect induced by LMW-DS / total” value (0.01 mg/ml, 48 h) was 554 and the “number of genes: not different from control / significant downregulation” value (0.01 mg/ml, 48 h) was 104. For the same substance, the “number of genes: not different from control / significant upregulation” value (0.01 mg/ml, 48 h) was 75, the “number of genes: not different from control / total” value (0.01 mg/ml, 48 h) was 179 and the “number of genes: total / no effect” value (0.01 mg/ml, 48 h) was 285. The “number of genes: total / significant downregulation” value (0.01 mg/ml, 48 h) was 562, the “number of genes: total / significant upregulation” value (0.01 mg/ml, 48 h) was 289 and the “number of genes: total / total” value (0.01 mg/ml, 48 h) was 1136. For the same substance, the “upstream regulator AGT: activation z-score” value (D0 to LMW-DS treatment) was 2.631, the “upstream regulator AGT: predicted activation state relative D2 control” value (D0 to LMW-DS treatment) was “Activated” and the “upstream regulator BMP4: activation z-score” value (D0 to LMW-DS treatment) was 0.972. The “upstream regulator BMP4: predicted activation state relative D2 control” value (D0 to LMW-DS treatment) was “More activated relative to control”, the “upstream regulator BMP6: activation z-score” value (D0 to LMW-DS treatment) was 0.13 and the “upstream regulator BMP6: predicted activation state relative D2 control” value (D0 to LMW-DS treatment) was “More activated relative to control”. The “upstream regulator BMP7: activation z-score” value (D0 to LMW-DS treatment) was 1.092, the “upstream regulator BMP7: predicted activation state relative D2 control” value (D0 to LMW-DS treatment) was “More activated relative to control” and the “upstream regulator INHA: activation z-score” value (D0 to LMW-DS treatment) was 0.588. The “upstream regulator INHA: predicted activation state relative D2 control” value (D0 to LMW-DS treatment) was “More activated relative to control”.
